The source of these data is US9365572B2, “PI3K and/or mTOR inhibitor” (XUANZHU PHARMA CO., LTD., priority 2012, dated 2016).

In general, IC50 refers to the concentration that inhibits the measured activity by half.

Some results are limits rather than exact numbers.

The target in assay [1] is IRAK4 (Homo sapiens (Human), UniProt Q9NWZ3). Kind of assay: Kinase selectivity, Mobility shift assay. Type of assay: biochemical. As for the experimental part:
(§1) Object: In this assay, the inhibitory activity of the test substance on the kinases listed in Table 3 was determined, and therefore the selectivity of the present compound was determined.
(§2) Except for the BRAF V600E kinase in Table 3, the Mobility shift assay was used for other kinases.
(§3) 1. Preparation of Agents:
(§4) • 1.1 1-fold kinase buffer without MnCl2: 50 mM HEPES, pH 7.5, 0.0015% Brij-35, 10 mM MgCl2, 2 mM DTT. • 1.2 1-fold kinase buffer with MnCl2: 50 mM HEPES, pH 7.5, 0.0015% Brij-35, 10 mM MgCl2, 10 mM MnCl2, 2 mM DTT. • 1.3 Termination solution: 100 mM HEPES, pH 7.5, 0.0015% Brij-35, 0.2% Coating Reagent#3, 50 mM EDTA. • 1.4 2.5-fold kinase solution: The kinase was added to the 1-fold kinase buffer to form a 2.5-fold kinase solution. • 1.5 2.5-fold substrate solution: FAM fluorescence-labelled polypeptide and ATP were added to the 1-fold kinase buffer to form a 2.5-fold substrate solution. 2. Preparation of 5-fold compound
(§5) The final test concentration of the compound was 10 μM at maximum. Firstly, a 50-fold concentration (i.e. 500 μM) was prepared with 100% DMSO. The compound was diluted with 100% DMSO by 5 folds at 5 concentrations (successively 500 μM, 100 μM, 20 μM, 4 μM, and 0.8 μM). After diluting with 1-fold kinase buffer by 10 folds, 5 μl of the samples were transferred to a 384-well reaction plate. Two negative control wells and two positive control wells were set at each line respectively. Replication was made in a 96-well plate in five concentrations of 5-fold compound. 10% DMSO was added to the positive control well, and 5 μl of EDTA (250 mM) was added to the negative control well.
(§6) • 3.1 To the 384-well reaction plate was added 5-fold compound dissolved in 10% DMSO at 5 μl/well. • 3.2 To the 384-well reaction plate was added 2.5-fold kinase solution at 10 μl/well. […] 4. […] 2. […] 3. […] 4.

Assay [2] has as its target PKACa (Homo sapiens (Human), UniProt P17612). Kind of assay: Kinase selectivity, Mobility shift assay. Type of assay: biochemical. How it is done: as §1, §2, §3, §4, §5, §6
In assay [3] the target is RSK2 (Homo sapiens (Human), UniProt P51812). Kind of assay: Kinase selectivity, Mobility shift assay. Type of assay: biochemical. How it is done:
as §1, §2, §3, §4, §5, §6

Assay [4] deals with EphA1 (Homo sapiens (Human), UniProt P21709). Kind of assay: Kinase selectivity, Mobility shift assay. Type of assay: biochemical. How it is done:
as §1, §2, §3, §4, §5, §6

In assay [5] the target is FLT3 (Homo sapiens (Human), UniProt P36888). In words: Kinase selectivity, Mobility shift assay. Type of assay: biochemical. How it is done:
as §1, §2, §3, §4, §5, §6

The target of assay [6] is TAOK2 (Homo sapiens (Human), UniProt Q9UL54). Kind of assay: Kinase selectivity, Mobility shift assay. Type of assay: biochemical. As for the experimental part: as §1, §2, §3, §4, §5, §6
Chain of TAOK2 (Q9UL54 whole entry, species assumed): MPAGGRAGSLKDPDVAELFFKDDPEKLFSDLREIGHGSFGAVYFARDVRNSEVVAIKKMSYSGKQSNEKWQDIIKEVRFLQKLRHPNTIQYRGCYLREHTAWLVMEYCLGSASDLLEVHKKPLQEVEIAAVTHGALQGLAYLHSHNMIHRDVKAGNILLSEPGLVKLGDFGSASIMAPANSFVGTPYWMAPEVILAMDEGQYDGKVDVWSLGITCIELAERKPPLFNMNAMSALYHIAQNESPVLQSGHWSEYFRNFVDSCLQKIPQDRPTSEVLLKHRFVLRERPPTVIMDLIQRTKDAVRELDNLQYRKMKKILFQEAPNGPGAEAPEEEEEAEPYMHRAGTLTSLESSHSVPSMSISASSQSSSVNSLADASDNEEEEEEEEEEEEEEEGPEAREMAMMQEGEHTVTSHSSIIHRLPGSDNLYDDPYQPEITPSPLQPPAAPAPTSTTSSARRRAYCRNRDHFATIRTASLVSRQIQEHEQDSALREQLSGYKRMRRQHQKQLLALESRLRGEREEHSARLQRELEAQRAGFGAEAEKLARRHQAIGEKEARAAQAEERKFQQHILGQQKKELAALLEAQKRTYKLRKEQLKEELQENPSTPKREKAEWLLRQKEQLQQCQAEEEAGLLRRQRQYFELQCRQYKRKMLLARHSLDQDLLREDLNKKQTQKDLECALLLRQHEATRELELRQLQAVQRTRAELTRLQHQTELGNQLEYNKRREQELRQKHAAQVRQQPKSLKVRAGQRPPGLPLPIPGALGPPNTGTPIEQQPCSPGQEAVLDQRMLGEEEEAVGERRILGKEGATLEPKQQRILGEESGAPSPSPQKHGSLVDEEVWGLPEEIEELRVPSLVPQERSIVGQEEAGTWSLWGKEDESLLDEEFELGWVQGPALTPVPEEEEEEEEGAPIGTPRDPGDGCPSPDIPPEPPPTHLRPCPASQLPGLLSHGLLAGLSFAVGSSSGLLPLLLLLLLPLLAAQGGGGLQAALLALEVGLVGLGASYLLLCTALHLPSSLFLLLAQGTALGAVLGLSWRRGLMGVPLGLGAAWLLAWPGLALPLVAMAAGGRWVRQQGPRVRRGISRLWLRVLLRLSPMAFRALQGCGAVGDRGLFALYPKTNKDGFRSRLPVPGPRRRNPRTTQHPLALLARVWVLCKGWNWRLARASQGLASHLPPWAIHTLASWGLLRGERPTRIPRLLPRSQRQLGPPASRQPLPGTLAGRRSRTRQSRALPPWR
For assay [7], the target named is AXL (Homo sapiens (Human), UniProt P30530). In words: Kinase selectivity, Mobility shift assay. Type of assay: biochemical. How it is done:
as §1, §2, §3, §4, §5, §6

In assay [8] the target is ERK2 (Homo sapiens (Human), UniProt P28482). Kind of assay: Kinase selectivity, Mobility shift assay. Type of assay: biochemical. As for the experimental part:
as §1, §2, §3, §4, §5, §6

The target in assay [9] is LCK (Homo sapiens (Human), UniProt P06239). Kind of assay: Kinase selectivity, Mobility shift assay. Type of assay: biochemical. As for the experimental part:
as §1, §2, §3, §4, §5, §6

In assay [10] the test system is Lovo. Kind of assay: In vitro cytological inhibitory activity (XTT). Type of assay: cell-based. The note with it: Homo sapiens, 72 hrs. How it is done: Lovo: Human colon carcinoma cell line;
1. Preparation of agents and compounds:
• 1.1 Preparation of phosphoric acid buffering solution (PBS): 8 g NaCl, 0.2 g KCl, 1.44 g Na2HPO4 and 0.24 g KH2PO4 were weighed and added to 800 mL ultrapure water. The mixture was adjusted to pH=7.4, and ultrapure water was added to the metered volume of IL. Then the autoclaving was conducted for 20 mins. • 1.2 Preparation of XTT detection working solution: 100 mg (2,3-Bis-(2-methoxy-4-nitro-5-sulfophenyl)-2H-tetrazolium-5-carboxanilide); 2,3-bis(2-methoxy-4-nitro-5-sulfophenyl)-5-[(phenylamino)carbonyl]-2H-tetrazolium hydroxide (XTT) powder was weighed, and dissolved under protection from light 300 mL of phenol red-free and serum-free RPMI1640 culture, which had been warmed up to 50° C. The resulting mixture was filtered, packaged and used immediately or in one week. The complete process was conducted under protection from light. • 1.3 Preparation of the test compound • Preparation of the stock solution of the test compound: The test compound powder was dissolved in DMSO in a concentration of 10 mM. • Preparation of the gradiently diluted solution of the test compound: 10 mM of the stock solution of the test compound was successively and gradiently diluted with DMSO by 4 folds for 10 concentrations. […]

Chain of LCK (P06239 whole entry, species assumed): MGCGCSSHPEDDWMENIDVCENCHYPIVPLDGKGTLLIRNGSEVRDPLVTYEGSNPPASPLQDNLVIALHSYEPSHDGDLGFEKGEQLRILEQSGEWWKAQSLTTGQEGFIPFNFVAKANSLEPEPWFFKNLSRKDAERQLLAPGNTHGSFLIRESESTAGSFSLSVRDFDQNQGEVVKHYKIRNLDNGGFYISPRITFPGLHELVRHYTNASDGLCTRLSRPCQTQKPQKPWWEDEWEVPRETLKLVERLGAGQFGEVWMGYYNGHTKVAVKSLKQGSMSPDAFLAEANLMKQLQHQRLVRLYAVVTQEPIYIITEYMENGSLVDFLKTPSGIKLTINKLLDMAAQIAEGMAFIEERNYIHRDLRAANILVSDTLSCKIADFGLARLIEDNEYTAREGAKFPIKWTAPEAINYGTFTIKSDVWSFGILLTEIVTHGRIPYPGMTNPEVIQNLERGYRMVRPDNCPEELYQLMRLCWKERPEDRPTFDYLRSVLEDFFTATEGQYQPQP
Chain of FLT3 (P36888 27-993, species assumed): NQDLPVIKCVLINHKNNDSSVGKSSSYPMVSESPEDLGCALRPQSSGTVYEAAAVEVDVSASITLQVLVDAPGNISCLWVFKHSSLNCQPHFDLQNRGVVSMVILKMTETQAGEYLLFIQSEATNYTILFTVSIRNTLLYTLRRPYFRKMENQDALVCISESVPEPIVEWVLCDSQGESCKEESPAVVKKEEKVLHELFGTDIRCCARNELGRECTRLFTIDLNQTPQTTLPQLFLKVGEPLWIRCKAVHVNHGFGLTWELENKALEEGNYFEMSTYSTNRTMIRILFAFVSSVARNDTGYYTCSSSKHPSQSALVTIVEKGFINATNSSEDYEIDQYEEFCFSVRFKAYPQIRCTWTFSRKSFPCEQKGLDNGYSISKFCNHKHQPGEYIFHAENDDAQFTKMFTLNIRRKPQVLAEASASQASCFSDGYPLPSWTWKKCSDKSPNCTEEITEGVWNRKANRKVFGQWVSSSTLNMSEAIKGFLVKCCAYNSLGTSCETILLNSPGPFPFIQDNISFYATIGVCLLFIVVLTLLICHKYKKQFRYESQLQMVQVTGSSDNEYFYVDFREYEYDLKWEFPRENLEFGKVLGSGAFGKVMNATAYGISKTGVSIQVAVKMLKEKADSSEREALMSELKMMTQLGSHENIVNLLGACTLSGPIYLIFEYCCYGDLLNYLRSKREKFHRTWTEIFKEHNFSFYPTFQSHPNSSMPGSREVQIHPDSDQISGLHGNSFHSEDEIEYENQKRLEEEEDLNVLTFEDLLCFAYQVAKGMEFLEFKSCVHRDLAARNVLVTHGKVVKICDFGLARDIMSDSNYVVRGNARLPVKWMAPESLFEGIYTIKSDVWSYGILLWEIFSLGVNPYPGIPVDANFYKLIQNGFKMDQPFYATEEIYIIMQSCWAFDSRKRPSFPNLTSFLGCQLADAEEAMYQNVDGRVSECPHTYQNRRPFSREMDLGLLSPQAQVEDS
Chain of RSK2 (P51812 whole entry, species assumed): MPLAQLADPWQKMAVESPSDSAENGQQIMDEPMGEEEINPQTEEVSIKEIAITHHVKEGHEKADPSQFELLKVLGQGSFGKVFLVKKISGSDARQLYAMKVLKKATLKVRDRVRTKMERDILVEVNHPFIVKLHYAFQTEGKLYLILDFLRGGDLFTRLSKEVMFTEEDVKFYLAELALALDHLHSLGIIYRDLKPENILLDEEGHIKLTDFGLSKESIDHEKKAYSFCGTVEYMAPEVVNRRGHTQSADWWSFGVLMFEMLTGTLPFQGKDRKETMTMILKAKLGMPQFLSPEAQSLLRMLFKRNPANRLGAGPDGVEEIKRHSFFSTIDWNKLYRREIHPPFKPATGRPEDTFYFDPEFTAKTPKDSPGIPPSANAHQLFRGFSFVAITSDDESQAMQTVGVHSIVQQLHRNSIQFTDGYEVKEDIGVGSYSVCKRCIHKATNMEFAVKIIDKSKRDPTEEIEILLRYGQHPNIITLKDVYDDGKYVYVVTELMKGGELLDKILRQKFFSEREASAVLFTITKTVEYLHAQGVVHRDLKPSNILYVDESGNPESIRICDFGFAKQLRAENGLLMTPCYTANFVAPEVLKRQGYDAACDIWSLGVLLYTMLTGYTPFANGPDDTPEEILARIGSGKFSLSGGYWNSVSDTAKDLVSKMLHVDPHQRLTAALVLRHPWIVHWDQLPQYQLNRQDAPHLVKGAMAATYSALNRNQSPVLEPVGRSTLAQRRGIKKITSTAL
Chain of EphA1 (P21709 26-976, species assumed): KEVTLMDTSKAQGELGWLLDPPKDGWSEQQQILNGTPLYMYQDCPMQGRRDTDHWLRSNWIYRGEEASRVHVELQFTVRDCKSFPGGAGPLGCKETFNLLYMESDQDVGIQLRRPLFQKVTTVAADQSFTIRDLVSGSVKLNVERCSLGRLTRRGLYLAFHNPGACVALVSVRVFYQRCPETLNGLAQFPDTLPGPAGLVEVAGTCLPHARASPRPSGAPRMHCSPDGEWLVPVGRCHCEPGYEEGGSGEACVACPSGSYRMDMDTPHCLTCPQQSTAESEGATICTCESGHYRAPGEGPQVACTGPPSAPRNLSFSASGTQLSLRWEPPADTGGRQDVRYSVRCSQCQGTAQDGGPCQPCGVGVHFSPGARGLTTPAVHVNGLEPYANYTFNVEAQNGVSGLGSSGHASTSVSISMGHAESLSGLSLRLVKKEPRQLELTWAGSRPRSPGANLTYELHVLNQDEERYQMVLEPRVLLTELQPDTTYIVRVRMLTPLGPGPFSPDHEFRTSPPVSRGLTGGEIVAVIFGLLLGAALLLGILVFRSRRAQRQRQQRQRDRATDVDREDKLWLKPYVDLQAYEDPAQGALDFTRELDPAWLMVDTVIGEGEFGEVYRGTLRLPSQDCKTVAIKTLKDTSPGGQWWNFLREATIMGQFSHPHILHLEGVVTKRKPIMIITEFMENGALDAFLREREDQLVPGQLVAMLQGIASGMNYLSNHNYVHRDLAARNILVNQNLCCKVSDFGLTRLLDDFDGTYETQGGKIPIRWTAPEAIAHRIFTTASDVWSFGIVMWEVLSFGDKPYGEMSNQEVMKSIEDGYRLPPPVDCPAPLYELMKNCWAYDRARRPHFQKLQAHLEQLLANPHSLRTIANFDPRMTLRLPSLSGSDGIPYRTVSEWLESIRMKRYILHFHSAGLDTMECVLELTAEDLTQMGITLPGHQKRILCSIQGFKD
Chain of ERK2 (P28482 whole entry, species assumed): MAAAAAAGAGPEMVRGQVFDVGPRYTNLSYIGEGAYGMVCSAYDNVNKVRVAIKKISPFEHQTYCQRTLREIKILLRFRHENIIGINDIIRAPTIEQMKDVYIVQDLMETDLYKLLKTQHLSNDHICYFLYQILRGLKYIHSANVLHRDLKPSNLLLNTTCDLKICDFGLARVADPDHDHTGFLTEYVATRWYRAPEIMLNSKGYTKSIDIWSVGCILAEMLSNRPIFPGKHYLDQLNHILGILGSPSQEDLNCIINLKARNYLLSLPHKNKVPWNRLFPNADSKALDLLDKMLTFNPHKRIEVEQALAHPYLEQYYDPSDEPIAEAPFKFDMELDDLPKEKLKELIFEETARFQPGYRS

Regarding `Nc1ccc(-c2ccc3ncc4c(=O)[nH]c(=O)n(-c5cccc(C(F)(F)F)c5)c4c3n2)cn1` [Compound 5, 9-(6-aminopyridin-3-yl)-1-(3-(trifluoromethyl)phenyl)pyrimido[5,4-c][1,5]naphthyridine-2,4(1H,3H)-dione], the IC50 was more than 10000 nM in assay [1]; more than 10000 nM in assay [2]; more than 10000 nM in assay [3]; 1470 nM in assay [4]; 6250 nM in assay [5]; more than 10000 nM in assay [6]. For the same compound, the 50% inhibitory concentration (IC50) was 2140 nM in [7], more than 10000 nM in assay [8], 1130 nM in assay [9] and 50.1 nM in assay [10].
